Reference: patent publication US20080312164A1 (priority 2006, published 2008)
Marks after values point to notes of the source that are not given here.

Tests used:
[1] = test system: Du145 cells; assay: Calcein AM cytotoxicity assay, Du145; assay type: cell-based; conditions: Homo sapiens, DU-145; Du145, Calcein AM, 72 h; read-out: IC50
Description: (§1) Five serial 1:2 dilutions were made with anhydrous DMSO at 100× the final concentration used in the assay.

[2] = test system: Du145 cells; assay: Cell Titer-Glo cytotoxicity assay, Du145; assay type: cell-based; conditions: Homo sapiens, DU-145; Du145, Cell Titer-Glo, 72 h; read-out: IC50
Description: as §1

[3] = test system: HCT-116 cells; assay: Calcein AM cytotoxicity assay, HCT-116; assay type: cell-based; conditions: Homo sapiens; HCT-116, Calcein AM, 72 h; read-out: IC50
Description: as §1

[4] = test system: HCT-116 cells; assay: Cell Titer-Glo cytotoxicity assay, HCT-116; assay type: cell-based; conditions: Homo sapiens; HCT-116, Cell Titer-Glo, 72 h; read-out: IC50
Description: as §1

[5] = test system: Hep3B cells; assay: Calcein AM cytotoxicity assay, Hep3B; assay type: cell-based; conditions: Homo sapiens, Calcein AM, 72 h, read-out: IC50
Description: as §1

[6] = test system: Hep3B cells; assay: Cell Titer-Glo cytotoxicity assay, Hep3B; assay type: cell-based; conditions: Homo sapiens, Cell Titer-Glo, 72 h, read-out: IC50
Description: as §1

[7] = test system: SF-268 cells; assay: Calcein AM cytotoxicity assay, SF-268; assay type: cell-based; conditions: Homo sapiens; SF-268, Calcein AM, 72 h; read-out: IC50
Description: as §1

[8] = test system: SF-268 cells; assay: Cell Titer-Glo cytotoxicity assay, SF-268; assay type: cell-based; conditions: Homo sapiens; SF-268, Cell Titer-Glo, 72 h; read-out: IC50
Description: as §1

[9] = test system: SK-OV-3 cells; assay: Calcein AM cytotoxicity assay, SK-OV-3; assay type: cell-based; conditions: Homo sapiens; SK-OV-3, Calcein AM, 72 h; read-out: IC50
Description: as §1

[10] = test system: SK-OV-3 cells; assay: Cell Titer-Glo cytotoxicity assay, SK-OV-3; assay type: cell-based; conditions: Homo sapiens; SK-OV-3, Cell Titer-Glo, 72 h; read-out: IC50
Description: as §1

[11] = test system: NCI/ADR RES cells; assay: Calcein AM cytotoxicity assay, NCI/ADR-RES; assay type: cell-based; conditions: Homo sapiens, Calcein AM, 72 h, read-out: IC50
Description: as §1

[12] = test system: NCI/ADR RES cells; assay: Cell Titer-Glo cytotoxicity assay, NCI/ADR-RES; assay type: cell-based, human; conditions: Homo sapiens; NCI/ADR-RES, Cell Titer-Glo, 72 h; read-out: IC50
Description: as §1

[13] = test system: NCI-H460 cells; assay: Calcein AM cytotoxicity assay, NCI-H460; assay type: cell-based; conditions: Homo sapiens; NCI-H460, Calcein AM, 72 h; read-out: IC50
Description: as §1

[14] = test system: NCI-H460 cells; assay: Cell Titer-Glo cytotoxicity assay, NCI-H460; assay type: cell-based, human; conditions: Homo sapiens; NCI-H460, Cell Titer-Glo, 72 h; read-out: IC50
Description: as §1

[15] = test system: MCF7 cells; assay: Calcein AM cytotoxicity assay, MCF7; assay type: cell-based; conditions: Homo sapiens; MCF7, Calcein AM, 72 h; read-out: IC50
Description: as §1

[16] = test system: MCF7 cells; assay: Cell Titer-Glo cytotoxicity assay, MCF7; assay type: cell-based, human; conditions: Homo sapiens; MCF7, Cell Titer-Glo, 72 h; read-out: IC50
Description: as §1

[17] = test system: NmuMG mouse mammary normal epithelial cells; assay: Calcein AM cytotoxicity assay, NmuMG; assay type: cell-based; conditions: Epithelial cell, NmuMG, Calcein AM, 72 h, read-out: IC50
Description: as §1

[18] = test system: NmuMG mouse mammary normal epithelial cells; assay: Cell Titer-Glo cytotoxicity assay, NmuMG; assay type: cell-based; conditions: Mus musculus, Epithelial cell; NmuMG, Cell Titer-Glo, 72 h; read-out: IC50
Description: as §1

[19] = test system: HT-29 cells; assay: MTT cytotoxicity assay, HT-29; assay type: cell-based; conditions: Homo sapiens; HT-29, MTT, 24 h; read-out: IC50
Description: The IC50 value for each library member represents at least twelve replicates of dose-response experiments conducted over five concentrations. […] In this assay, live cells were distinguished by the intracellular enzymatic activity that converts the cell-permeable molecule MTT to strongly colored formazan crystals, which are retained within live cells and absorb light at 570 nm.
MTT Cytotoxicity Assay. HT-29 cell lines were maintained in RPMI medium 1640 supplemented with 10% (wt/vol) FBS and 1% penicillin-streptomycin (PS) (100 units/mL and 100 μg/mL). Cells were harvested by trypsinization using 0.25% trypsin and 0.1% EDTA and plated at a density of 2,000-5,000 cells per well of each 96-well microtiter plate. Cells were grown for 24 h at 37° C., with 5% CO2/95% air in a humidified incubator to allow cell attachment to occur before compound addition. Library members were stored at −20° C. under desiccating conditions before the assay. Library member stocks (1000×) were prepared in falcon tubes (BD Biosciences). Five dilutions were made with DMSO at 1000× the final concentration used in the assay. The 1000× stocks (3 μL) were diluted with complete culture medium (3 mL). Each plate contained twelve replicates of cells treated with 0.1% DMSO in complete cell culture medium that served as an individual negative control. Library member stocks (1×, 200 μL) were added to aspirated cells and replicated twelve times on each plate. Cells were incubated with the library members for 24 h before optical density reading. Test plates were removed from the incubator and washed once in sterile PBS to remove serum containing library members. Freshly-made 10×MTT solution in sterile PBS (5 mg/mL) was diluted 1:10 in serum-free culture medium and was sterilized using a 0.2 μm filter. Diluted MTT solution (1×, 50 μL) was added to each well and the plates were incubated in the dark for 2 h. Test plates were centrifuged at 1800×g for 5 min at 4° C. using a Beckman GPR centrifuge. MTT solution was removed by aspiration and 100 μL DMSO was added to each well to lyse cells and solubilize formazan crystals. Test plates were incubated in the dark at room temperature for 10 min. Plates were read for optical density at 570 nm.
IC50 Calculations. For each library member, at least three dose-response experiments were conducted on separate plates. […] To calculate IC50, percent inhibitions were plotted as a function of log[concentration] and then fit to a four-parameter logistic model that allowed for a variable Hill slope by using XLFIT 4.1 (ID Business Solutions, Emeryville, Calif.).

[20] = test system: human cancer cell lines; assay: Cytotoxicity across the panel of human cancer cell lines (average, high-throughput assays); assay type: cell-based; conditions: for IC50: read-out: Cancerous Average IC50 / Average IC50 in Cancer Cell Lines
Description: as §1

[21] = test system: NmuMG Cell Line; assay: Cytotoxicity in NmuMG cell line, summary table (assay not stated); assay type: cell-based; conditions: Mus musculus, assay not stated (mostly Cell Titer-Glo values; Calcein AM values for 20, 24, 39)
Description: as §1

[22] = average across eight human cancer cell lines, MTT (HT-29) values excluded

S=C=NCCC1=CCCCC1 [Compound 39, 1-(2-isothiocyanatoethyl)cyclohex-1-ene]
IC50 [1]: 25.5 µM
IC50 [2]: 18.6 µM
IC50 [3]: 19 µM
IC50 [4]: 16.4 µM
IC50 [5]: 28.5 µM
IC50 [6]: 16.1 µM
IC50 [7]: 3.89 µM
IC50 [8]: 13.6 µM
IC50 [9]: 19.5 µM
IC50 [10]: 24.1 µM
IC50 [11]: 12.2 µM
IC50 [12]: 26.9 µM
IC50 [13]: 28.6 µM
IC50 [14]: 36.4 µM
IC50 [15]: 27.5 µM
IC50 [16]: 19.8 µM
IC50 [17]: 13 µM
IC50 [18]: > 200 µM
IC50 [19]: 45.3 µM
IC50 [20, 22]: 18.3 µM
IC50 [21]: 13 µM

S=C=Nc1ccc(Br)cc1 [Compound 20, 1-bromo-4-isothiocyanatobenzene]
IC50 [1]: > 50 µM
IC50 [2]: 41.4 µM
IC50 [3]: > 50 µM
IC50 [4]: 21.6 µM
IC50 [5]: > 50 µM
IC50 [6]: > 50 µM
IC50 [7]: > 50 µM
IC50 [8]: 24.9 µM
IC50 [9]: > 50 µM
IC50 [10]: 19.6 µM
IC50 [11]: > 50 µM
IC50 [12]: 23.1 µM
IC50 [13]: > 50 µM
IC50 [14]: 10.4 µM
IC50 [15]: 26.7 µM
IC50 [16]: 17.1 µM
IC50 [17]: 183 µM
IC50 [18]: 21.4 µM
IC50 [19]: > 50 µM
Cancerous Average IC50 / Average IC50 in Cancer Cell Lines [20, 22]: >50.00^e μM
IC50 [20, 22]: > 50 µM
IC50 [21]: 183 µM

S=C=NCc1ccccc1-c1ccccc1 [Compound 33, 1-(isothiocyanatomethyl)-2-phenylbenzene]
IC50 [1]: 3.16 µM
IC50 [2]: 5.25 µM
IC50 [3]: 5.56 µM
IC50 [4]: 4.64 µM
IC50 [5]: 10.6 µM
IC50 [6]: 4.24 µM
IC50 [7]: 4.79 µM
IC50 [8]: 6.39 µM
IC50 [9]: 5.93 µM
IC50 [10]: 5.01 µM
IC50 [11]: 4.12 µM
IC50 [12]: 4.11 µM
IC50 [13]: 6.44 µM
IC50 [14]: 8.95 µM
IC50 [15]: 1.6 µM
IC50 [16]: 3.63 µM
IC50 [17]: < 12.5 µM
IC50 [18]: 80.1 µM
IC50 [19]: 39.9 µM
selectivity for cancer cells over NmuMG cells ([20]; IC50 in NmuMG versus average IC50 in cancer cell lines): 36.3 fold
further fold increase in potency from multiple phenyl rings ([20]; average IC50 compared with single-ring 23 and 38): ~2 fold
IC50 [20, 22]: 4.96 µM
IC50 [21]: 180 µM

Cc1c(N=C=S)c(=O)n(-c2ccccc2)n1C [Compound 37, 4-isothiocyanato-2,3-dimethyl-1-phenyl-1,2-dihydropyrazol-5-one]
IC50 [1]: > 50 µM
IC50 [2]: > 50 µM
IC50 [3]: > 50 µM
IC50 [4]: > 50 µM
IC50 [5]: > 50 µM
IC50 [6]: > 50 µM
IC50 [7]: > 50 µM
IC50 [8]: > 50 µM
IC50 [9]: > 50 µM
IC50 [10]: > 50 µM
IC50 [11]: > 50 µM
IC50 [12]: > 50 µM
IC50 [13]: > 50 µM
IC50 [14]: > 50 µM
IC50 [15]: > 50 µM
IC50 [16]: > 50 µM
IC50 [17]: > 200 µM
IC50 [18]: > 200 µM
IC50 [19]: > 50 µM
IC50 [20, 22]: > 50 µM
IC50 [21]: > 200 µM
